# Legend:
# [1] = Kinetic solubility assay (CLND), potassium phosphate buffer pH 6.8; format: physicochemical; conditions: potassium phosphate buffer, pH 6.8, aqueous buffer, kinetic from dmso stock, pH 6.8, 2% DMSO, 24 hours at ambient temperature
# Description: • Inject filtrates into the nitrogen detector for quantification on Analiza's Automated Discovery Workstation (ADW). • Solubility results generated in μg/mL
# IRAK4 = IRAK4 (Homo sapiens (Human), UniProt Q9NWZ3); assay: IRAK4 2-hour 1 mM ATP Biochemical Assay (MesoScale Detection format); conditions: 100 pM IRAK4, read-out: IRAK4 IC50
# Protocol: The 2-hour 1 mM ATP Biochemical Assay employed a MesoScale Detection (MSD) format.
# The activity was quenched with 11 μl of 70 mM EDTA, pH 8.
# To detect the phosphorylated biotinylated peptide substrate, 30 μl of the quenched reaction mixture was added to equivalent wells of a 384 well streptavidin coated MesoScale plate (Meso Scale Discovery #L21SA-1). After a 1 hour incubation of the plate for 1 hour at room temperature with gentle mixing, the plate wells were washed 3 times with 50 mM Tris, pH 7.5, 150 mM NaCl, 0.02% Tween-20.
# A 25 μl volume of 1:500 anti-P-Threonine Rabbit polyclonal Antibody plus 1:500 Goat-anti-Rabbit Sulfo Tag Antibody (Meso Scale Discovery R^32AB-1) in 50 mM Tris, pH 7.5, 150 mM NaCl, 0.02% Tween-20 plus 2% BSA was then added to each well. After a 1-hour incubation of the plate for 1 hour at room temperature with gentle mixing, the plate wells were washed, 3 times with 50 mM Tris, pH 7.5, 150 mM NaCl, 0.02% Tween-20.
# MDR1 = MDR1 (Homo sapiens (Human), UniProt P08183); assay: MDR1-MDCK assay (apparent permeability, efflux ratio); format: in vitro ADME; conditions: human, MDCK-MDR1, 1 μM, read-out: MDR1-MDCK_Efflux Ratio
# [2] = Kpuu assay (in vivo brain-to-plasma partition, unbound); conditions: brain (unbound) versus plasma (unbound); intravenous infusion 4 to 24 h; unbound drug partition coefficient; read-out: Brain Kpu,u
# Protocol: For the brain-to-plasma partition coefficient (Kp) evaluation, a dosing solution was intravenously infused into animals at a constant flow rate for 4 to 24 h. Blood samples were serially collected during infusion, and CSF and brain samples were harvested at the end of infusion.
# Tissue samples were typically homogenized in phosphate buffer saline (PBS) using a bead ruptor.
# CSF samples were typically diluted with 8% BSA in PBS to prevent from non-specific binding. Artificial CSF (aCSF) is used as the surrogate matrix.
# Calibration curves were prepared by spiking the analyte(s) into blank matrices, which were processed together with plasma, tissue homogenate and/or CSF samples by protein precipitation using a proper organic solvent (e.g. acetonitrile and methanol) containing generic analogue internal standards (e.g. verapamil, chrysin and glyburide). Matrix matching was used when analyzing multiple matrices in the same run. Samples above the upper limit of quantitation (ULOQ) needed to be diluted into the calibration range using either a pre-extraction or post-extraction dilution approach.
# Processed samples were analyzed by LC-MS/MS using a proper method performing within the acceptable sensitivity, selectivity, precision and accuracy. For an analytical run to be accepted, over 75% of the calibration standards in the dual calibration curves needed to be within 20% of the nominal concentrations.
# Brain concentrations were compared against plasma concentrations at the corresponding timepoint for the calculation of partition coefficient (Kp).
# Unbound drug partition coefficient (Kpuu), defined as the ratio of unbound drug partition across the blood-brain barrier, was calculated using the equation below:
# [formula] • Cb: measured total drug concentration in brain • Fub: unbound drug fraction in brain • Cp: measured total drug concentration in plasma • Fup: unbound drug fraction in plasma Compound- or study-specific PK analysis that deviates from the typical procedure might be used when necessary, which will be documented in a study specific protocol included in the data upload.
# Mix thoroughly. • This spiked plasma solution is shown in FIG. 1. • 3) Prepare a chilled ‘crash’ solution of internal standard in a solvent solution. • Pipette 200 μL of 25 ng/mL solution of internal standard, CPDPX (8-Cyclopentyl-1,3-dipropylxanthine, Sigma-Aldrich, C101) in 1:1 acetonitrile/methanol solvent solution into a 1 mL 96-well plate. • Chill on ice or refrigerate at 4° C. • This solution becomes the ‘Crash’ plate in FIG. 1. • 4) From remaining spiked plasma, remove 50 μL (T=0 h) of each plasma sample and place into a crash plate which contains 200 μL. To matrix match, add 50 μL of blank buffer to the crashed sample (similar to PPB samples). […] Mix crash plate thoroughly. • From remaining spiked plasma, remove 50 μL (T=4 h) of each plasma sample and place into a crash plate. To matrix match, add 50 μL of blank buffer to the crashed sample (similar to the protein binding samples). • Centrifuge crash plate at 3900 rpm for 10 minutes at 4° C.
# % Free=(PAR of buffer side/PAR of plasma side)*100 • PAR—Peak area ratio (PAR)
# Fu=% Free/100 • Fu=fraction unbound
# Sequence of IRAK4 (Q9NWZ3 whole entry): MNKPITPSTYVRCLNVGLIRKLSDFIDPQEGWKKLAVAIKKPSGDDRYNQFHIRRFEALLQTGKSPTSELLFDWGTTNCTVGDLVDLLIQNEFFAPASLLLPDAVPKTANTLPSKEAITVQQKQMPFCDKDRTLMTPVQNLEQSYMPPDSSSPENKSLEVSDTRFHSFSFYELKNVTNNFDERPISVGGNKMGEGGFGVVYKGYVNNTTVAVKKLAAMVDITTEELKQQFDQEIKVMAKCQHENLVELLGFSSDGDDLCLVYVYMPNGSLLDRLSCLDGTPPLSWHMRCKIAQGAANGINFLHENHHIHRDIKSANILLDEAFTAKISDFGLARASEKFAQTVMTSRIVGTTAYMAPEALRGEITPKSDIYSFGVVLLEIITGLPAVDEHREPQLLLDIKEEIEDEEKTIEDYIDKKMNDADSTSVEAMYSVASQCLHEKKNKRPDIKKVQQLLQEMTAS
# Sequence of MDR1 (P08183 whole entry, the tested form may be a part): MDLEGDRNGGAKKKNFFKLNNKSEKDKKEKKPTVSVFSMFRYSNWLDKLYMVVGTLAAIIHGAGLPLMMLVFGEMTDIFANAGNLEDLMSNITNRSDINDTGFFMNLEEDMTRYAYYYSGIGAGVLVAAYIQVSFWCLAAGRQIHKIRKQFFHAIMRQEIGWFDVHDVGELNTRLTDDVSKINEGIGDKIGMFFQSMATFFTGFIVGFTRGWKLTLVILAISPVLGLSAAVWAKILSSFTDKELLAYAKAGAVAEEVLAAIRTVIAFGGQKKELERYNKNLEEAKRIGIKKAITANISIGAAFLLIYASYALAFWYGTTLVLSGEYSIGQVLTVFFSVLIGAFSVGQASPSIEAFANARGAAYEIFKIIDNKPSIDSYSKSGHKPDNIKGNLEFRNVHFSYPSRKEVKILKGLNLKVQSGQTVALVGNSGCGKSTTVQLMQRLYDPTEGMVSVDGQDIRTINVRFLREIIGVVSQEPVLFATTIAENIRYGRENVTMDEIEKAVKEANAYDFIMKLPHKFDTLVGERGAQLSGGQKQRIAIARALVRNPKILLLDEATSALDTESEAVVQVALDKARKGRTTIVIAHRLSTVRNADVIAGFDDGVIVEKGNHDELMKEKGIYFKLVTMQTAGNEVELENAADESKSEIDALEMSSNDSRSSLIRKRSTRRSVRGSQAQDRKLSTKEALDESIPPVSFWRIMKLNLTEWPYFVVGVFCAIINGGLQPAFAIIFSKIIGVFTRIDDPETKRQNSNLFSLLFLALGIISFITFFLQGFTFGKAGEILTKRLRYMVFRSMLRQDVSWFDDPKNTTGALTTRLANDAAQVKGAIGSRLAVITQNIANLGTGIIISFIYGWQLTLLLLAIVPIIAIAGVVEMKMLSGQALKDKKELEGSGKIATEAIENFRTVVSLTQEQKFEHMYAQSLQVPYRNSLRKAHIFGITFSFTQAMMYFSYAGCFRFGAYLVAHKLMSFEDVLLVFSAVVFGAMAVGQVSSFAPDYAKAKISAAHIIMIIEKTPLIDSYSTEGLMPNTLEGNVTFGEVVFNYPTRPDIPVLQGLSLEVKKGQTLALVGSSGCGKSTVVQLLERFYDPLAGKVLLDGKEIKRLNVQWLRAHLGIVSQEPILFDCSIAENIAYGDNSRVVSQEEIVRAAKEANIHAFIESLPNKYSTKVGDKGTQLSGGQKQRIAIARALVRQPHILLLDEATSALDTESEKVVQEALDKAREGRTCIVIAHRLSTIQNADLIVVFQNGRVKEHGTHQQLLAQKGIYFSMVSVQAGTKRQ
Compound,solubility at 24 h [1] [µg/mL],IC50 (IRAK4) [pM],"efflux ratio at 120 min, 1 μM (MDR1)",Kp [2]
"C[C@@H]1C[C@@H]1n1cccc(NC(=O)c2cc3cn(C45COC(C)(C4)C5)nc3nc2OC2CCC2)c1=O [Example 95, 6-cyclobutoxy-2-(1-methyl-2-oxabicyclo[2.1.1]hexan-4-yl)-N-(1-((1S,2R)-2-methylcyclopropyl)-2-oxo-1,2-dihydropyridin-3-yl)-2H-pyrazolo[3,4-b]pyridine-5-carboxamide]",48.3,800,1.09,
"O=C(Nc1cccn([C@H]2C[C@H]2F)c1=O)c1cc2cn([C@@]34CC[C@@H](C3)OC4)nc2nc1OC1CC1 (single isomer, unassigned) [Example 87]",62.4,200,7.93,
"CC(C)Oc1cc2nn(C34COC(C)(C3)C4)cc2cc1C(=O)Nc1ccnn(C2CC2)c1=O [Example 45, N-(2-cyclopropyl-3-oxo-2,3-dihydropyridazin-4-yl)-6-isopropoxy-2-(1-methyl-2-oxabicyclo[2.1.1]hexan-4-yl)-2H-indazole-5-carboxamide]",1.2,1300,0.73,
"COCC12CC(n3cc4cc(C(=O)Nc5cccn([C@@H]6C[C@H]6F)c5=O)c(OC(C)C)cc4n3)(CO1)C2 (single isomer, unassigned) [Example 55]",60.5,800,3.71,
"CC(C)Oc1cc2nn(C34COC(C3)C4)cc2cc1C(=O)Nc1cccn([C@H]2C[C@H]2C)c1=O [Example 79, 2-(2-oxabicyclo[2.1.1]hexan-4-yl)-6-isopropoxy-N-(1-((1S,2R)-2-methylcyclopropyl)-2-oxo-1,2-dihydropyridin-3-yl)-2H-indazole-5-carboxamide]",55.8,800,2.56,
"CC[C@H](C)Oc1nc2nn(C34COC(C)(C3)C4)cc2cc1C(=O)Nc1cccn(C2CC2)c1=O [Example 15, (S)-6-(sec-butoxy)-N-(1-cyclopropyl-2-oxo-1,2-dihydropyridin-3-yl)-2-(1-methyl-2-oxabicyclo[2.1.1]hexan-4-yl)-2H-pyrazolo[3,4-b]pyridine-5-carboxamide]",,500,1.4,0.9
"C[C@@H]1C[C@@H]1n1cccc(NC(=O)c2cc3cn(C45COC(C)(C4)C5)nc3nc2OC2CC2)c1=O [Example 89, 6-cyclopropoxy-2-(1-methyl-2-oxabicyclo[2.1.1]hexan-4-yl)-N-(1-((1S,2R)-2-methylcyclopropyl)-2-oxo-1,2-dihydropyridin-3-yl)-2H-pyrazolo[3,4-b]pyridine-5-carboxamide]",38.1,900,2.28,
"COCC12CC(n3cc4cc(C(=O)Nc5cccn([C@H]6C[C@@H]6F)c5=O)c(OC5CCC5)nc4n3)(CO1)C2 (single isomer, unassigned) [Example 66]",12.3,800,3.38,
"COCC12CC(n3cc4cc(C(=O)Nc5cccn([C@H]6C[C@@H]6F)c5=O)c(OC(C)C)cc4n3)(CO1)C2 (single isomer, unassigned) [Example 56]",63.9,800,3.31,
"CC12CC(n3cc4cc(C(=O)Nc5cccn([C@@H]6C[C@@H]6F)c5=O)c(OC5CCC5)nc4n3)(CO1)C2 (racemic) [Example 25, 6-cyclobutoxy-N-(1-(cis-2-fluorocyclopropyl)-2-oxo-1,2-dihydropyridin-3-yl)-2-(1-methyl-2-oxabicyclo[2.1.1]hexan-4-yl)-2H-pyrazolo[3,4-b]pyridine-5-carboxamide]",29.2,300,2.71,
"C[C@@]12CC[C@@](n3cc4cc(C(=O)Nc5cccn(C6CC6)c5=O)c(OC5CCC5)nc4n3)(CO1)C2 [Example 6, 6-cyclobutoxy-N-(1-cyclopropyl-2-oxo-1,2-dihydropyridin-3-yl)-2-((1S,4S)-1-methyl-2-oxabicyclo[2.2.1]heptan-4-yl)-2H-pyrazolo[3,4-b]pyridine-5-carboxamide]",5.57,400,1.59,
"COC[C@@]12CC[C@@](n3cc4cc(C(=O)Nc5cccn(C6CC6)c5=O)c(OC(C)C)nc4n3)(CO1)C2 [Example 30, N-(1-cyclopropyl-2-oxo-1,2-dihydropyridin-3-yl)-6-isopropoxy-2-((1S,4S)-1-(methoxymethyl)-2-oxabicyclo[2.2.1]heptan-4-yl)-2H-pyrazolo[3,4-b]pyridine-5-carboxamide]",,200,2.58,0.6
"COCC12CC(n3cc4cc(C(=O)Nc5cccn([C@H]6C[C@H]6C)c5=O)c(OC(C)C)cc4n3)(CO1)C2 [Example 78, 6-isopropoxy-2-(1-(methoxymethyl)-2-oxabicyclo[2.1.1]hexan-4-yl)-N-(1-((1S,2R)-2-methylcyclopropyl)-2-oxo-1,2-dihydropyridin-3-yl)-2H-indazole-5-carboxamide]",36.1,700,2.05,
"COCC12CC(n3cc4cc(C(=O)Nc5cccn([C@@H]6C[C@H]6F)c5=O)c(OC5CCC5)nc4n3)(CO1)C2 (single isomer, unassigned) [Example 65]",13,800,3.22,
"CC12CC(n3cc4cc(C(=O)Nc5cccn([C@@H]6C[C@@H]6F)c5=O)c(OC5CCC5)nc4n3)(CO1)C2 [Example 26, 6-cyclobutoxy-N-(1-((1R,2S)-2-fluorocyclopropyl)-2-oxo-1,2-dihydropyridin-3-yl)-2-(1-methyl-2-oxabicyclo[2.1.1]hexan-4-yl)-2H-pyrazolo[3,4-b]pyridine-5-carboxamide]",1.6,7300,4.05,
"CC(C)Oc1cc2nn([C@]34CC[C@](C)(C3)OC4)cc2cc1C(=O)Nc1cccn([C@H]2C[C@@H]2F)c1=O (single isomer, unassigned) [Example 62]",56.1,600,1.6,
"COCC12CC(n3cc4cc(C(=O)Nc5cccn([C@H]6C[C@@H]6F)c5=O)c(OC5CCC5)cc4n3)(CO1)C2 (single isomer, unassigned) [Example 58]",52.3,1500,4.05,
"CC12CC(n3cc4cc(C(=O)Nc5cccn(C6CC6)c5=O)c(OC5CCC5)nc4n3)(CO1)C2 [Example 24, 6-cyclobutoxy-N-(1-cyclopropyl-2-oxo-1,2-dihydropyridin-3-yl)-2-(1-methyl-2-oxabicyclo[2.1.1]hexan-4-yl)-2H-pyrazolo[3,4-b]pyridine-5-carboxamide]",5.53,400,2.53,
CC(C)Oc1nc2nn(C3CCOCC3)cc2cc1C(=O)Nc1cccn(C2CC2)c1=O [Example 13],19.8,700,3.41,
COCC12CC(n3cc4cc(C(=O)Nc5cccn([C@H]6C[C@H]6C)c5=O)c(OC5CC5)nc4n3)(CO1)C2 [Example 90],65.2,1100,5.39,
"COC[C@]12CC[C@](n3cc4cc(C(=O)Nc5cccn(C6CC6)c5=O)c(OC(C)C)nc4n3)(CO1)C2 [Example 31, N-(1-cyclopropyl-2-oxo-1,2-dihydropyridin-3-yl)-6-isopropoxy-2-((1R,4R)-1-(methoxymethyl)-2-oxabicyclo[2.2.1]heptan-4-yl)-2H-pyrazolo[3,4-b]pyridine-5-carboxamide]",61.8,200,2.5,
"COCC12CC(n3cc4cc(C(=O)Nc5cccn([C@@H]6C[C@H]6F)c5=O)c(OC(C)C)nc4n3)(CO1)C2 (single isomer, unassigned) [Example 63]",58.8,500,5.06,
"C[C@@H]1C[C@@H]1n1cccc(NC(=O)c2cc3cn(C45COC(C4)C5)nc3nc2OC2CC2)c1=O [Example 91, 2-(2-oxabicyclo[2.1.1]hexan-4-yl)-6-cyclopropoxy-N-(1-((1S,2R)-2-methylcycloproyl)-2-oxo-1,2-dihydropyridin-3-yl)-2H-pyrazolo[3,4-b]pyridine-5-carboxamide]",46.7,1100,5.09,
"C[C@]12CC[C@](n3cc4cc(C(=O)Nc5cccn(C6CC6)c5=O)c(OC5CCC5)nc4n3)(CO1)C2 [Example 7, 6-cyclobutoxy-N-(1-cyclopropyl-2-oxo-1,2-dihydropyridin-3-yl)-2-((1R,4R)-1-methyl-2-oxabicyclo[2.2.1]heptan-4-yl)-2H-pyrazolo[3,4-b]pyridine-5-carboxamide]",10.3,700,1.43,
"CC[C@@H](C)Oc1nc2nn(C34COC(C)(C3)C4)cc2cc1C(=O)Nc1cccn(C2CC2)c1=O [Example 14, (R)-6-(sec-butoxy)-N-(1-cyclopropyl-2-oxo-1,2-dihydropyridin-3-yl)-2-(1-methyl-2-oxabicyclo[2.1.1]hexan-4-yl)-2H-pyrazolo[3,4-b]pyridine-5-carboxamide]",43,1400,2.27,
"CC(C)Oc1cc2nn([C@]34CC[C@](C)(C3)OC4)cc2cc1C(=O)Nc1cccn(C2CC2)c1=O [Example 3, N-(1-cyclopropyl-2-oxo-1,2-dihydropyridin-3-yl)-6-isopropoxy-2-((1R,4R)-1-methyl-2-oxabicyclo[2.2.1]heptan-4-yl)-2H-indazole-5-carboxamide]",7.9,500,1.59,
